Test results published in PubChem BioAssay AID256 (DTP/NCI, 2004).
Where “and” joins values, the source holds several entries; their conditions need not be identical. Identical values can stand only once. Toxic doses and inconclusive results are not listed.

Tested on: CD2F1 mice, L1210 leukemia ip, survival T/C
Test: NCI In Vivo Anticancer Drug Screen. Data for tumor model L1210 Leukemia (intraperitoneal) in CD2F1 (CDF1) mice
Details: higher = longer survival
Procedure, shortened: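 Transplantable tumor in mice; compound-treated vs vehicle-treated groups. Read-out = treated/control ratio of the measured endpoint.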

CN(C)/N=N/c1nc[nH]c1C(N)=O
T/C (endpoint: mean survival time, dose: 1.56 mg/kg/injection, schedule: Q03HX024 (ip), vehicle: steriod suspending solution): 105 % of control
T/C (endpoint: mean survival time, dose: 1.56 mg/kg/injection, schedule: Q03HX024 (oral), vehicle: steriod suspending solution): 105 % of control
T/C (endpoint: mean survival time, dose: 2.9 mg/kg/injection, schedule: Q01DX009 (ip), vehicle: Klucel (hydroxypropylcellulose) (HPC)): 103 % of control
T/C (endpoint: mean survival time, dose: 3.12 mg/kg/injection, schedule: Q03HX024 (ip), vehicle: steriod suspending solution): 115 % of control
T/C (endpoint: mean survival time, dose: 3.12 mg/kg/injection, schedule: Q03HX024 (oral), vehicle: steriod suspending solution): 107 % of control
T/C (endpoint: mean survival time, dose: 5.7 mg/kg/injection, schedule: Q01DX009 (ip), vehicle: Klucel (hydroxypropylcellulose) (HPC)): 108 % of control
T/C (endpoint: mean survival time, dose: 6.25 mg/kg/injection, schedule: Q03HX016 (ip), vehicle: steriod suspending solution): 107 % of control
T/C (endpoint: mean survival time, dose: 6.25 mg/kg/injection, schedule: Q03HX016 (oral), vehicle: steriod suspending solution): 110 % of control
T/C (endpoint: mean survival time, dose: 6.25 mg/kg/injection, schedule: Q03HX024 (oral), vehicle: steriod suspending solution): 104 % of control
T/C (endpoint: mean survival time, dose: 11.4 mg/kg/injection, schedule: Q01DX009 (ip), vehicle: Klucel (hydroxypropylcellulose) (HPC)): 104 % of control and 105 % of control
T/C (endpoint: mean survival time, dose: 12.5 mg/kg/injection, schedule: Q01DX001 (ip), vehicle: distilled water + Tween-80): 104 % of control and 105 % of control
T/C (endpoint: mean survival time, dose: 12.5 mg/kg/injection, schedule: Q03HX016 (ip), vehicle: steriod suspending solution): 109 % of control
T/C (endpoint: mean survival time, dose: 12.5 mg/kg/injection, schedule: Q03HX016 (oral), vehicle: steriod suspending solution): 109 % of control
T/C (endpoint: mean survival time, dose: 12.5 mg/kg/injection, schedule: Q03HX024 (ip), vehicle: steriod suspending solution): 116 % of control
T/C (endpoint: mean survival time, dose: 22.7 mg/kg/injection, schedule: Q01DX009 (ip), vehicle: Klucel (hydroxypropylcellulose) (HPC)): 115 % of control and 110 % of control
T/C (endpoint: mean survival time, dose: 25.0 mg/kg/injection, schedule: Q01DX001 (ip), vehicle: distilled water + Tween-80): 103 % of control and 104 % of control
T/C (endpoint: mean survival time, dose: 25.0 mg/kg/injection, schedule: Q01DX009 (ip), vehicle: DMSO): 110 % of control
T/C (endpoint: mean survival time, dose: 25.0 mg/kg/injection, schedule: Q01DX009 (ip), vehicle: saline): 117 % of control
T/C (endpoint: mean survival time, dose: 25.0 mg/kg/injection, schedule: Q01DX009 (ip), vehicle: water): 113 % of control
T/C (endpoint: mean survival time, dose: 25.0 mg/kg/injection, schedule: Q03HX016 (oral), vehicle: steriod suspending solution): 110 % of control
T/C (endpoint: mean survival time, dose: 25.0 mg/kg/injection, schedule: Q03HX024 (ip), vehicle: steriod suspending solution): 118 % of control
T/C (endpoint: mean survival time, dose: 25.0 mg/kg/injection, schedule: Q03HX024 (oral), vehicle: steriod suspending solution): 122 % of control
T/C (endpoint: mean survival time, dose: 25.0 mg/kg/injection, schedule: Q04DX003 (ip), vehicle: other): 110 % of control
T/C (endpoint: mean survival time, dose: 25.0 mg/kg/injection, schedule: Q04DX003 (ip), vehicle: water): 105 % of control
T/C (endpoint: mean survival time, dose: 45.5 mg/kg/injection, schedule: Q01DX009 (ip), vehicle: Klucel (hydroxypropylcellulose) (HPC)): 115 % of control and 123 % of control
T/C (endpoint: mean survival time, dose: 50.0 mg/kg/injection, schedule: Q01DX001 (ip), vehicle: distilled water + Tween-80): 113 % of control and 106 % of control
T/C (endpoint: mean survival time, dose: 50.0 mg/kg/injection, schedule: Q01DX005 (ip), vehicle: other): 117 % of control
T/C (endpoint: mean survival time, dose: 50.0 mg/kg/injection, schedule: Q01DX009 (ip), vehicle: DMSO): 120 % of control
T/C (endpoint: mean survival time, dose: 50.0 mg/kg/injection, schedule: Q01DX009 (ip), vehicle: saline): 116 % of control
T/C (endpoint: mean survival time, dose: 50.0 mg/kg/injection, schedule: Q01DX009 (ip), vehicle: steriod suspending solution): 115 % of control
T/C (endpoint: mean survival time, dose: 50.0 mg/kg/injection, schedule: Q03DX003 (ip), vehicle: saline): 110 % of control
T/C (endpoint: mean survival time, dose: 50.0 mg/kg/injection, schedule: Q03HX016 (ip), vehicle: steriod suspending solution): 115 % of control
T/C (endpoint: mean survival time, dose: 50.0 mg/kg/injection, schedule: Q03HX016 (oral), vehicle: steriod suspending solution): 105 % of control
T/C (endpoint: mean survival time, dose: 50.0 mg/kg/injection, schedule: Q04DX003 (ip), vehicle: Klucel (hydroxypropylcellulose) (HPC)): 103 % of control
T/C (endpoint: mean survival time, dose: 50.0 mg/kg/injection, schedule: Q04DX003 (ip), vehicle: other): 114 % of control
T/C (endpoint: mean survival time, dose: 50.0 mg/kg/injection, schedule: Q04DX003 (ip), vehicle: saline): 105 % of control
T/C (endpoint: mean survival time, dose: 50.0 mg/kg/injection, schedule: Q04DX003 (ip), vehicle: water): 117 % of control
T/C (endpoint: mean survival time, dose: 60.0 mg/kg/injection, schedule: Q04DX003 (ip), vehicle: saline): 88 % of control and 108 % of control
T/C (endpoint: mean survival time, dose: 67.0 mg/kg/injection, schedule: Q01DX009 (ip), vehicle: carboxymethylcellulose (CMC)): 160 % of control
T/C (endpoint: mean survival time, dose: 80.0 mg/kg/injection, schedule: Q04DX003 (ip), vehicle: saline): 92 % of control and 106 % of control
T/C (endpoint: mean survival time, dose: 91.0 mg/kg/injection, schedule: Q01DX009 (ip), vehicle: Klucel (hydroxypropylcellulose) (HPC)): 121 % of control
T/C (endpoint: mean survival time, dose: 97.0 mg/kg/injection, schedule: Q01DX009 (ip), vehicle: carboxymethylcellulose (CMC)): 154 % of control
T/C (endpoint: mean survival time, dose: 100.0 mg/kg/injection, schedule: Q01DX001 (ip), vehicle: distilled water + Tween-80): 114 % of control and 117 % of control
T/C (endpoint: mean survival time, dose: 100.0 mg/kg/injection, schedule: Q01DX009 (ip), vehicle: carboxymethylcellulose (CMC)): 160 % of control
T/C (endpoint: mean survival time, dose: 100.0 mg/kg/injection, schedule: Q03DX003 (ip), vehicle: saline): 120 % of control
T/C (endpoint: mean survival time, dose: 100.0 mg/kg/injection, schedule: Q03HX016 (ip), vehicle: steriod suspending solution): 122 % of control
T/C (endpoint: mean survival time, dose: 100.0 mg/kg/injection, schedule: Q03HX016 (oral), vehicle: steriod suspending solution): 116 % of control
T/C (endpoint: mean survival time, dose: 100.0 mg/kg/injection, schedule: Q04DX003 (ip), vehicle: Klucel (hydroxypropylcellulose) (HPC)): 114 % of control
T/C (endpoint: mean survival time, dose: 100.0 mg/kg/injection, schedule: Q04DX003 (ip), vehicle: other): 114 % of control and 120 % of control
T/C (endpoint: mean survival time, dose: 100.0 mg/kg/injection, schedule: Q04DX003 (ip), vehicle: saline): 108 % of control
T/C (endpoint: mean survival time, dose: 100.0 mg/kg/injection, schedule: Q04DX003 (ip), vehicle: steriod suspending solution): 116 % of control
T/C (endpoint: mean survival time, dose: 100.0 mg/kg/injection, schedule: Q04DX003 (oral), vehicle: steriod suspending solution): 116 % of control
T/C (endpoint: mean survival time, dose: 100.0 mg/kg/injection, schedule: Q08DX002 (ip), vehicle: steriod suspending solution): 117 % of control
T/C (endpoint: mean survival time, dose: 100.0 mg/kg/injection, schedule: Q08DX002 (oral), vehicle: steriod suspending solution): 115 % of control
T/C (endpoint: mean survival time, dose: 150.0 mg/kg/injection, schedule: Q01DX001 (oral), vehicle: saline): 101 % of control
T/C (endpoint: mean survival time, dose: 150.0 mg/kg/injection, schedule: Q01DX009 (ip), vehicle: Klucel (hydroxypropylcellulose) (HPC)): 172 % of control
T/C (endpoint: mean survival time, dose: 180.0 mg/kg/injection, schedule: Q04DX003 (ip), vehicle: saline): 114 % of control and 108 % of control
T/C (endpoint: mean survival time, dose: 182.0 mg/kg/injection, schedule: Q01DX009 (ip), vehicle: Klucel (hydroxypropylcellulose) (HPC)): 120 % of control
T/C (endpoint: mean survival time, dose: 200.0 mg/kg/injection, schedule: Q01DX001 (ip), vehicle: distilled water + Tween-80): 120 % of control
T/C (endpoint: mean survival time, dose: 200.0 mg/kg/injection, schedule: Q01DX007 (ip), vehicle: saline): 159 % of control
T/C (endpoint: mean survival time, dose: 200.0 mg/kg/injection, schedule: Q01DX009 (ip), vehicle: DMSO): 174 % of control
T/C (endpoint: mean survival time, dose: 200.0 mg/kg/injection, schedule: Q01DX009 (ip), vehicle: saline): 151 % of control
T/C (endpoint: mean survival time, dose: 200.0 mg/kg/injection, schedule: Q01DX009 (ip), vehicle: steriod suspending solution): 157 % of control
T/C (endpoint: mean survival time, dose: 200.0 mg/kg/injection, schedule: Q01DX009 (ip), vehicle: water): 118 % of control
T/C (endpoint: mean survival time, dose: 200.0 mg/kg/injection, schedule: Q01DX009 (oral), vehicle: steriod suspending solution): 169 % of control
T/C (endpoint: mean survival time, dose: 200.0 mg/kg/injection, schedule: Q04DX003 (ip), vehicle: Klucel (hydroxypropylcellulose) (HPC)): 123 % of control
T/C (endpoint: mean survival time, dose: 200.0 mg/kg/injection, schedule: Q04DX003 (ip), vehicle: steriod suspending solution): 116 % of control
T/C (endpoint: mean survival time, dose: 200.0 mg/kg/injection, schedule: Q04DX003 (oral), vehicle: steriod suspending solution): 122 % of control
T/C (endpoint: mean survival time, dose: 200.0 mg/kg/injection, schedule: Q08DX002 (oral), vehicle: steriod suspending solution): 118 % of control
T/C (endpoint: mean survival time, dose: 300.0 mg/kg/injection, schedule: Q01DX001 (oral), vehicle: saline): 113 % of control
T/C (endpoint: mean survival time, dose: 364.0 mg/kg/injection, schedule: Q01DX009 (ip), vehicle: Klucel (hydroxypropylcellulose) (HPC)): 63 % of control
T/C (endpoint: mean survival time, dose: 400.0 mg/kg/injection, schedule: Q01DX005 (ip), vehicle: other): 113 % of control
T/C (endpoint: mean survival time, dose: 400.0 mg/kg/injection, schedule: Q01DX009 (ip), vehicle: water): 96 % of control
T/C (endpoint: mean survival time, dose: 400.0 mg/kg/injection, schedule: Q01DX009 (oral), vehicle: steriod suspending solution): 152 % of control
T/C (endpoint: mean survival time, dose: 400.0 mg/kg/injection, schedule: Q08DX002 (ip), vehicle: steriod suspending solution): 121 % of control
T/C (endpoint: mean survival time, dose: 600.0 mg/kg/injection, schedule: Q01DX001 (oral), vehicle: saline): 121 % of control
T/C (endpoint: mean survival time, dose: 800.0 mg/kg/injection, schedule: Q08DX002 (ip), vehicle: steriod suspending solution): 164 % of control
T/C (endpoint: mean survival time, dose: 800.0 mg/kg/injection, schedule: Q08DX002 (oral), vehicle: steriod suspending solution): 123 % of control
T/C (endpoint: median survival time, dose: 9.8 mg/kg/injection, schedule: Q03HX008 (ip), vehicle: Klucel (hydroxypropylcellulose) (HPC)): 105 % of control
T/C (endpoint: median survival time, dose: 22.2 mg/kg/injection, schedule: Q03HX008 (ip), vehicle: Klucel (hydroxypropylcellulose) (HPC)): 114 % of control
T/C (endpoint: median survival time, dose: 33.3 mg/kg/injection, schedule: Q03HX008 (ip), vehicle: Klucel (hydroxypropylcellulose) (HPC)): 123 % of control
T/C (endpoint: median survival time, dose: 48.0 mg/kg/injection, schedule: Q01DX005 (ip), vehicle: Klucel (hydroxypropylcellulose) (HPC)): 115 % of control
T/C (endpoint: median survival time, dose: 50.0 mg/kg/injection, schedule: Q02DX005 (ip), vehicle: Klucel (hydroxypropylcellulose) (HPC)): 121 % of control
T/C (endpoint: median survival time, dose: 72.0 mg/kg/injection, schedule: Q01DX005 (ip), vehicle: Klucel (hydroxypropylcellulose) (HPC)): 123 % of control
T/C (endpoint: median survival time, dose: 100.0 mg/kg/injection, schedule: Q02DX005 (ip), vehicle: Klucel (hydroxypropylcellulose) (HPC)): 117 % of control
T/C (endpoint: median survival time, dose: 108.0 mg/kg/injection, schedule: Q01DX005 (ip), vehicle: Klucel (hydroxypropylcellulose) (HPC)): 124 % of control
T/C (endpoint: median survival time, dose: 240.0 mg/kg/injection, schedule: Q01DX001 (ip), vehicle: Klucel (hydroxypropylcellulose) (HPC)): 115 % of control
T/C (endpoint: median survival time, dose: 600.0 mg/kg/injection, schedule: Q01DX001 (ip), vehicle: Klucel (hydroxypropylcellulose) (HPC)): 121 % of control
T/C (endpoint: median survival time, dose: 900.0 mg/kg/injection, schedule: Q01DX001 (ip), vehicle: Klucel (hydroxypropylcellulose) (HPC)): 123 % of control
